According to US20230312587A1, “PTERIDINONE COMPOUNDS AND USES THEREOF” (Vertex Pharmaceutical Incorporated, priority 2018, published 2023):
pIC50: −log10 of the molar value. Read-outs that look alike come from different tables or passages of the source.

Experiments:
HepG2 WFS1 KO = test: In vitro cell viability (CellTiter-Glo), HepG2 WFS1 KO; format: cell-based; details: for pIC50: 96 hours; for shift in IC50 on depletion of WFS1 from HepG2 cells: WFS1 KO vs parental HepG2, 96 hours
From the text: A double cleavage strategy was employed to remove large fragments from the WFS1 locus. Suitable target sites in WFS1 exon 8 were first selected using CRISPR design software to rank suitable target sites and computationally predict off-target sites for each intended target. Six top guide RNA sequences are identified and screened for activity using the Surveyor Mutation Detection Kit (Integrated DNA Technologies). Then, the best 2 guide RNAs were cloned into GeneArt OFP CRISPR nuclease vectors (Thermofisher, Cat #A21174) separately and co-transfected into HepG2 cells using nucleofection (4D Nucleofector X, Lonza). Cells were sorted by FACS 48 hrs later to enrich for the OFP positive cell population. The OFP positive cell population were plated into 96-well plates at 0.5-5 cells/well to isolate clonal cell lines. After allowing cells to expand for 2-3 weeks, plates were inspected for presence of colonies. When colonies became more than 70% confluent, they were dissociated with trypsin and were further expanded. Cell clones with homozygous double cleavage of WFS1 exon 8 were detected with PCR and confirmed with DNA sequencing.
HEK293 cells containing empty pCLPCx vector (HEK293 empty), HEK293 cells stably over-expression WFS1 (HEK293 WFS1), HepG2, and HepG2 cells where WFS1 was depleted via CRISPR/Cas9 (HepG2 WFS1 KO) cells were plated into 96-well black plates (Corning, product #3904) in 100 microliters of complete DMEM cell culture media [DMEM (Life Technologies, product #11960-051) media supplemented with 10% FBS (Hyclone, catalog #SH30071.03), antimycotic/antibiotic (Life Technologies, product #15240-062), and Glutamax (Life Technologies, product #35050-061)] at 1,000 (HEK293) or 5,000 (HepG2) cells per well. Cells were allowed to attach and grow overnight, after which compounds are added at various concentrations. Cell viability was assessed 96 hrs after compound addition with CellTiter-Glo reagent (Promega, catalog #G7570) according to manufacturer's protocol and measurement on a Pherastar luminescence plate reader (BMG Labtech).
To determine the effect of WFS1 depletion on compound mediated inhibition of cell viability, parental HepG2 cells and HepG2 cells where WFS1 was deleted by CRISPR/Cas9 were exposed to increasing concentrations of either Compound 136 or Compound 253 for 96 hours after which time viability was determined using Cell Titer Glo reagent (Promega). […] The IC50s for the viability of both the HepG2 parental and WFS1 knockout cells are summarized in Table 47: A<0.5 μM; 0.5 μM≤<2.0 μM; 2.0 μM≤C<10.0 μM; D≥[…].

[1] = system: Colo205-TCF/LEF-Luciferase (Luc) tumor; test: In vivo inhibition of TCF/LEF reporter activity in Colo-205 tumors; parameters: concentration or dose not given beside the values; details: TCF/LEF luciferase reporter in Colo-205 tumors, nu/nu mice, oral gavage
In short: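 Female nu/nu mice carried subcutaneous Colo205-TCF/LEF-luciferase tumours (200–500 mm^3), n=4 per group. Compound was given by oral gavage in 1:3:5:1 EtOH:DMSO:PEG-400:H2O at 10 ml/kg, with vehicle as control. Luciferase activity in tumour lysates (Steady-Glo) was normalised to BCA protein.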

[2] = HepG2 WFS1 knockout, read-out: HepG2 WFS1 KO viability
[3] = Homo sapiens, HepG2 WFS1 knockout, read-out: HepG2 WFS1 KO viability

Compound | pIC50 (HepG2 WFS1 KO; [3]) | Percent Remaining Activity at 8 hrs after Dosing [1] | also measured
Cc1nc(NCc2cnn(Cc3ccc(C(F)(F)F)nc3)c2)nc2c1NC(=O)[C@H](C)N2C [Compound 136, (7S)-4,7,8-trimethyl-2-(((1-((6-(trifluoromethyl)pyridin-3-yl)methyl)-111-pyrazol-4-yl)methyl)amino)-7,8-dihydropteridin-6(5H)-one] | – | 24% | pIC50 (HepG2 WFS1 KO; [2]): ≤ 5.00; pIC50 (HepG2 WFS1 KO; cell viability, HepG2 WFS1 KO, Cell Titer Glo, read-out: IC50): < 4.57; pIC50 (HepG2 WFS1 KO; cell viability, HepG2 WFS1 KO, read-out: IC50 class): ≤ 5.00; shift in IC50 on depletion of WFS1 from HepG2 cells (HepG2 WFS1 KO; cell viability): greater than 100 fold
Cc1nc(N[C@H]2C[C@H](Oc3cc(F)c(F)c(F)c3)C2)nc2c1N(C)C(=O)[C@H](C)N2C [Compound 253, (7S)-4,5,7,8-tetramethyl-2-((trans-3-(3,4,5-trifluorophenoxy)cyclobutyl)amino)-7,8-dihydropteridin-6(5H)-one] | – | 15% | pIC50 (HepG2 WFS1 KO; Homo sapiens, cell viability, HepG2 WFS1 KO, Cell Titer Glo, read-out: IC50): 5.36; pIC50 (HepG2 WFS1 KO; Homo sapiens, cell viability, HepG2 WFS1 KO, read-out: IC50 class): 5.00 to 5.70; shift in IC50 on depletion of WFS1 from HepG2 cells (HepG2 WFS1 KO; cell viability): greater than 5 fold
Cc1nc(NCc2cnn(Cc3ccc(Cl)nc3)c2)nc2c1NC(=O)[C@H](C(C)C)N2C [Compound 409, (7S)-2-(((1-((6-chloropyridin-3-yl)methyl)-1H-pyrazol-4-yl)methyl)amino)-7-isopropyl-4,8-dimethyl-7,8-dihydropteridin-6(5H)-one] | ≤ 5.00 | 27% | –
Cc1nc(NCc2cnn(Cc3ccc(F)nc3)c2)nc2c1NC(=O)[C@H](C1CC1)N2C [Compound 421, (7S)-7-cyclopropyl-2-(((1-((6-fluoropyridin-3-yl)methyl)-1H-pyrazol-4-yl)methyl)amino)-4,8-dimethyl-7,8-dihydropteridin-6(511)-one] | – | 23% | pIC50 (HepG2 WFS1 KO; [2]): ≤ 5.00

Now from value to compound, other results behind:

pIC50 (HepG2 WFS1 KO; [3]) | Compound | Percent Remaining Activity at 8 hrs after Dosing [1] | also measured
≤ 5.00 | Cc1nc(NCc2cnn(Cc3ccc(C(F)(F)F)nc3C(C)(C)O)c2)nc2c1NC(=O)[C@H](C)N2C [Compound 416, (7S)-2-(((1-((2-(2-hydroxypropan-2-yl)-6-(trifluoromethyl)pyridin-3-yl)methyl)-1H-pyrazol-4-yl)methyl)amino)-4,7,8-trimethyl-7,8-dihydropteridin-6(5H)-one] | 22% | –
≤ 5.00 | Cc1cc(F)ncc1Cn1cc(CNc2nc(C)c3c(n2)N(C)[C@@H](C(C)C)C(=O)N3)cn1 [Compound 423, (7S)-2-(((1-((6-fluoro-4-methylpyridin-3-yl)methyl)-1H-pyrazol-4-yl)methyl)amino)-7-isopropyl-4,8-dimethyl-7,8-dihydropteridin-6(5H)-one] | 70% | –
≤ 5.00 | Cc1ncc(Cn2cc(CNc3nc(C)c4c(n3)N(C)[C@@H](C(C)C)C(=O)N4)cn2)cc1F [Compound 425, (7S)-2-(((1-((5-fluoro-6-methylpyridin-3-yl)methyl)-1H-pyrazol-4-yl)methyl)amino)-7-isopropyl-4,8-dimethyl-7,8-dihydropteridin-6(5H)-one] | 29% | –
